Square brackets hold non-standard residues; d marks the D form. Peptide text beside a SMILES is read from it. Sar = CNCC(=O)O

The values below come from article PMC7689096, “Cyclizing Painkillers: Development of Backbone-Cyclic TAPS Analogs” (Frontiers in Chemistry, 2020).

For the data set, the system named is Brush Border Membrane Vesicle (BBMV) enzymes. Kind of data set: in vitro. It is filed as in vitro ADME. The settings on record: rat BBMV. The protocol: A few of the peptides from the library were selected for further evaluation. The TAPS c(2-6) representative MOP agonists, TAPS c(6-2) and TAPS c(4-2) were not evaluated for opioid receptor interaction, and two non-active cyclic peptides, TAPS c(3-2) and TAPS c(6-6), having a smaller and larger ring sizes, respectively. The backbone-cyclic peptide stability in the GI tract was evaluated using rat origin pooled Brush Border Membrane Vesicle (BBMV) enzymes and were compared to the stability of linear TAPS (Figure 6).
1. Mass spectrometry analyses … 1
2. Metabolic Stability in BBMVs … 1
2.1 Preparation of BBMVs … 1
2.2 Experimental protocol for BBMVs … 2
3.1 In vitro cell based model: Caco-2 cell culture permeability studies … 2 3.1.1 Growth and Maintenance of the Cells: … 2
3.1.2 Preparation of the Cells for Transport Studies: … 2
3.2 Experimental Protocol … 2
3.3 Data Analysis of In Vitro Studies … 3
3.4 Statistical Analysis of the In Vitro Studies … 3
3.5 Statistical Analysis of Pharmacodynamic Studies … 3
3.6 Analytical Methods for Compound Concentration … 3
5. Supplementary Figures … 6
6. Supplementary Tables … 7
1. Mass spectrometry analyses
Mass spectra were acquired on a LCQ Fleet Ion Trap mass spectrometer (Thermo Scientific) utilizing electrospray ionization. For high resolution mass spectrometry (HRMS) analyses, the spectra were recorded on an Agilent 6550 iFunnel Q-TOF LC/MS system.
2. […]

On to `CN(CC(=O)O)C(=O)[C@H](Cc1ccccc1)NC(=O)[C@@H](CCCN=C(N)N)NC(=O)[C@@H](N)Cc1ccc(O)cc1` [Linear, Tyr-D-Arg-Phe-Sar] (H-Y[dR]F[Sar]-OH), for which the metabolised at 0.5 h (male, Wistar, kidney or brush border membranes, pH 7.4, after treatment for 30 min, read-out: peptide degraded by intestinal enzymes) is greater than 80%. In addition, under “after 60 min”, the “peptide fate with intestinal enzymes” value is “decomposed”.
